Laboratory results from patent US20260216055A1, “PLANT-MINERAL COMPOSITION FOR PH-DEPENDENT REGULATION OF TYPE 3 AQUAPORINS BASED ON ALOE BARBADENSIS” (SKYLAB AG, priority 2022, published 2026).

Tests used:
[1] = aloin in the extract composition; cited from earlier work
[2] = system: HaCaT cells; assay: Cytotoxicity estimation of the components on skin keratinocytes (MTT); type: cell-based; conditions: 24 hours
From the text: The study method is based on the definition of the amount of Type 3 aquaporins in epidermal keratinocytes after adding the components of the composition into HaCaT cell culture medium. At the first stage, cytotoxicity of the components is estimated depending on the concentration of components in the composition, be determining the number of survived cells according to MTT concentration with a color dilution method. Cells of HaCaT line were used in the amount of 10 000 cells per well in a 96-well plate. The testing facilities were as follows: humidified atmosphere with 5% CO2 at 37° C. Incubation time equaled 24 hours. For the negative control, purified water without any components of the composition was used. The number of survived cells was registered with MTT at 570 nm. The number of biological replicates was 3.

[3] = system: Type 3 aquaporins (AQP3); assay: Amount of Type 3 aquaporins in skin keratinocytes (HaCaT, sandwich ELISA); type: cell-based; conditions: Table 7 experiment, 24 hours, Aloe extract 0.01%, trimethylglycine 1%, combination 0.01% + 1% equivalent to active ingredients, Hydagen Aquaporin 1% for the raw material
From the text: At the second stage, the definition of the amount of Type 3 aquaporins in keratinocytes after cultivation under the standard conditions, using the maximum non-toxic concentration of the component from the previous text. To determine the amount of AQP3, a commercially available test with the use of sandwich-type enzyme-linked immunoassay was used. Cells of HaCaT line with the density of 10^5 cells per well were introduced to the 96-well plate. On the next day, the cell medium was removed and replaced with DMEM+5% FBS 50 μL fresh cell medium to maintain cell growth. Next, 50 μL of samples of the composition under the invention was added, and cultivation was performed for 24 hours. In all the tests, 0.20% sodium chloride was added to the cell medium to regulate osmotic balance and to create physiological conditions to cultivate skin cells. The cultivating environment conditions were as follows: humidified atmosphere with 5% CO2 at 37° C. After incubation, cell supernatant was collected, and the amount of Type 3 aquaporins in skin keratinocytes was determined with ELISA method. […] Only after binding the 3 components of the reagent with AQP3 a stable color could be achieved, which was fixed with sulphuric acid and spectropotometrically detected at 450±10 nm wave length. […]

[4] = system: skin; conditions: 2% in body cleansers, 12 hours after the contact with the product; cited from earlier work

With O=C1c2c(O)cccc2C([C@@H]2O[C@H](CO)[C@@H](O)[C@H](O)[C@H]2O)c2cc(CO)cc(O)c21 (stereo partly drawn) [Aloin] as the molecule, how does the “UV radiation neutralized when applied on skin surface” value [1] read?
Its value is “up to 30%”.

With C[N+](C)(C)CC(=O)[O-] [Trimethylglycine, trimethylglycine] as the molecule, how does the “Vitality of cells, % when adding the components of the composition into the cultural medium” value (“Vitality of cells, %” for short) ([2]; 0.03% (weight %) in medium) read?
Its value is 98.8 ± 3.47%.

And the “Vitality of cells, %” value ([2]; 0.10% (weight %) in medium)?
The value was 99.9 ± 1.47%.

And the “Vitality of cells, %” value ([2]; 0.25% (weight %) in medium)?
The value was 95.4 ± 2.94%.

What about the “Vitality of cells, %” value ([2]; 1.00% (weight %) in medium) of the same molecule?
Its value is 93.5 ± 1.66%.

What about the “Vitality of cells, %” value ([2]; 10.00% (weight %) in medium) of the same molecule?
Its value is 90.3 ± 6.82%.

What about the “Increase of AQP3 amount in relation to the negative control, %” value [3] of the same molecule?
Its value is “+17.92%”.

And the “Amount of AQP3” value ([3]; negative control 5.58 ± 0.24)?
Its value is 6.58 ± 1.08 ng/mL.

Which Transepidermal water loss [4] does the source give for CCCCCCCCCCCCOS(=O)(=O)[O-].[Na+] [sodium lauryl sulfate] here?
The Transepidermal water loss was 68.9 g/m^2/h.
